Measurements published in patent USRE29225E, “N-substituted derivatives of 3-carboxamide and 3-thiocarboxamide” (The Dow Chemical Company, priority 1976, dated 1977).
In brackets after ≈: the same amount, converted by molar mass. Read-outs that look alike come from different tables or passages of the source.

What was measured:
Format in all cases: cell-based
S. aureus = experiment: agar dilution test, S. aureus; settings: Staphylococcus aureus, complete growth inhibition, read-out: Minimum Inhibitory Concentration, Sa
Description: (§1) In representative operations, the products of the invention when tested for antimicrobial activity using conventional agar dilution tests gave complete growth inhibition against the following organisms at the indicated concentrations in parts per million: […]

S. typhosa = experiment: agar dilution test, S. typhosa; settings: read-out: Minimum Inhibitory Concentration, St
Description: as §1

A. aerogenes = experiment: agar dilution test, A. aerogenes; settings: Klebsiella aerogenes, read-out: Minimum Inhibitory Concentration, Aa
Description: as §1

P. aeruginosa = experiment: agar dilution test, P. aeruginosa; settings: Pseudomonas aeruginosa, read-out: Minimum Inhibitory Concentration, Pa
Description: as §1

C. pelliculosa = experiment: agar dilution test, C. pelliculosa; settings: Hansenula anomala, read-out: Minimum Inhibitory Concentration, Cp
Description: as §1

S. cerevisiae = experiment: agar dilution test, S. cerevisiae; settings: Saccharomyces cerevisiae, read-out: Minimum Inhibitory Concentration, Sc
Description: as §1

A. niger = experiment: agar dilution test, A. niger; settings: Aspergillus niger, read-out: Minimum Inhibitory Concentration, An
Description: as §1

P. chrysogenum = experiment: agar dilution test, P. chrysogenum; settings: Penicillium chrysogenum, read-out: Minimum Inhibitory Concentration, Pen
Description: as §1

[1] = A. aerogenes, agar dilution, complete growth inhibition
[2] = P. aeruginosa, agar dilution, complete growth inhibition
[3] = C. pelliculosa, agar dilution, complete growth inhibition
[4] = S. cerevisiae, agar dilution, complete growth inhibition
[5] = A. niger, agar dilution, complete growth inhibition
[6] = P. chrysogenum, agar dilution, complete growth inhibition

Structure (SMILES)	MIC (S. aureus) [µg/mL]	MIC (S. typhosa; S. typhosa, agar dilution, complete growth inhibition) [µg/mL]	MIC (A. aerogenes) [µg/mL]	MIC (P. aeruginosa) [µg/mL]	MIC (C. pelliculosa) [µg/mL]	MIC (S. cerevisiae) [µg/mL]	MIC (A. niger) [µg/mL]	MIC (P. chrysogenum) [µg/mL]	MIC (S. typhosa) [µg/mL]	MIC (A. aerogenes; [1]) [µg/mL]	MIC (P. aeruginosa; [2]) [µg/mL]	MIC (C. pelliculosa; [3]) [µg/mL]	MIC (S. cerevisiae; [4]) [µg/mL]	MIC (A. niger; [5]) [µg/mL]	MIC (P. chrysogenum; [6]) [µg/mL]
Cl/C=C\C[N+]12CN3CN(CN(C3)C1)C2.[Cl-] [Cis, cis-1-(3-chloro-2-propenyl)-3,5,7-triaza-1-azoniatricyclo (3,3,1,1^3,7) decane chloride, reference compound]	50	25	50	75	500	250	> 500	500	–	–	–	–	–	–	–
O=C(Nc1ccccc1)N1CN2CN(C/C=C\Cl)CN(C2)C1 [Example 1, N-Phenyl-3-Carboxamide-7-Cis(3-Chloro-2-Propenyl)-1,3,5,7-Tetraazabicyclo(3,3,1)Nonane]	50 (≈ 155 µM)	–	–	–	–	–	–	–	25 (≈ 77.7 µM)	50 (≈ 155 µM)	50 (≈ 155 µM)	250 (≈ 777 µM)	250 (≈ 777 µM)	500 (≈ 1550 µM)	250 (≈ 777 µM)
S=C(Nc1ccccc1)N1CN2CN(C/C=C\Cl)CN(C2)C1 [Example 2, N-Phenyl-3-.[.Thiocarboxamide.]..Iadd.Methanethioamide.Iaddend.-7-Cis-(3-Chloro-2-Propenyl)-1,3,5,7-Tetraazabicyclo(3,3,1)Nonane]	75 (≈ 222 µM)	–	–	–	–	–	–	–	25 (≈ 74 µM)	50 (≈ 148 µM)	75 (≈ 222 µM)	> 500	250 (≈ 740 µM)	250 (≈ 740 µM)	500 (≈ 1480 µM)
COc1ccc(NC(=O)N2CN3CN(C/C=C\Cl)CN(C3)C2)cc1 [Example 3 a)]	50 (≈ 142 µM)	–	–	–	–	–	–	–	10 (≈ 28.4 µM)	75 (≈ 213 µM)	75 (≈ 213 µM)	250 (≈ 711 µM)	250 (≈ 711 µM)	500 (≈ 1420 µM)	250 (≈ 711 µM)
Cc1ccc(NC(=O)N2CN3CN(C/C=C\Cl)CN(C3)C2)cc1 [Example 3 b)]	50 (≈ 149 µM)	–	–	–	–	–	–	–	25 (≈ 74.4 µM)	50 (≈ 149 µM)	50 (≈ 149 µM)	250 (≈ 744 µM)	250 (≈ 744 µM)	250 (≈ 744 µM)	100 (≈ 298 µM)
Cc1ccc(C)c(NC(=O)N2CN3CN(C/C=C\Cl)CN(C3)C2)c1 [Example 3 c)]	75 (≈ 214 µM)	–	–	–	–	–	–	–	50 (≈ 143 µM)	75 (≈ 214 µM)	75 (≈ 214 µM)	250 (≈ 715 µM)	250 (≈ 715 µM)	500 (≈ 1430 µM)	250 (≈ 715 µM)
O=C(Nc1ccc(Cl)cc1)N1CN2CN(C/C=C\Cl)CN(C2)C1 [Example 3 d)]	75 (≈ 211 µM)	–	–	–	–	–	–	–	25 (≈ 70.2 µM)	75 (≈ 211 µM)	100 (≈ 281 µM)	250 (≈ 702 µM)	250 (≈ 702 µM)	500 (≈ 1400 µM)	250 (≈ 702 µM)
O=C(Nc1ccc(Br)cc1)N1CN2CN(C/C=C\Cl)CN(C2)C1 [Example 3 e)]	100 (≈ 250 µM)	–	–	–	–	–	–	–	25 (≈ 62.4 µM)	100 (≈ 250 µM)	250 (≈ 624 µM)	250 (≈ 624 µM)	250 (≈ 624 µM)	500 (≈ 1250 µM)	250 (≈ 624 µM)
O=C(Nc1cc(Cl)ccc1Cl)N1CN2CN(C/C=C\Cl)CN(C2)C1 [Example 3 f)]	75 (≈ 192 µM)	–	–	–	–	–	–	–	50 (≈ 128 µM)	75 (≈ 192 µM)	100 (≈ 256 µM)	250 (≈ 640 µM)	250 (≈ 640 µM)	500 (≈ 1280 µM)	250 (≈ 640 µM)
